# Experimental data taken from patent US20020169101A1, “Treatment of sexual dysfunction” (priority 1999, published 2002).
# Tests used:
# [1] = system: female rat sexual proceptivity; assay: Female rat sexual proceptivity test (time investigating male vs female stimulus); assay type: in vivo
# Procedure: (§1) Ovariectomised adult female Sprague Dawley rats (180-200 g, from Charles River) were housed in groups of 6 in a reversed lighting system of 12 h light:dark (lights off 7.00-19.00 h). Two weeks after ovariectomy they were used for sexual activity tests. The experiments started at least 5 h into the dark period.
# Tests were carried out in a circular arena of 90 cm diameter, surrounded by a 30 cm high wall. Two small cages with wire-mesh front (15×15 cm) are fixed into the wall such that the front of the cage is <> with the wall and the 2 cages are opposite each other. They contained two stimuli animals: an intact sexually experienced male and a receptive female (ovariectomised, primed with 5 μg oestradiol benzoate dissolved in corn oil and injected subcutaneously 48 hours before the test and with 0.5 mg of progesterone four hours before the test). Sexually naive test and control animals were used. Forty eight hours before the tests, both the test and control animals were primed with 5 μg oestradiol benzoate. For animals used as positive controls, progesterone (0.5 mg/0.1 ml) was dissolved in corn oil and administered subcutaneously (s.c.), 4 h before the test. Test and control animals were introduced one at a time for 10 minute periods into the arena. During the 10 min test, the time that the test or positive control animal spent investigating each stimulus animal was noted. The arena was thoroughly cleaned between animals. The position of the male/female stimuli boxes was randomised between animals, in order to avoid place preference. The difference in the percentage of time spent investigating the male minus the female stimuli was calculated, out of the total time spent investigating stimuli animals.
# Compound (1) was dissolved in 100% β-cyclodextrin and then diluted with saline to a final solution of 50% 2-hydroxypropyl-β-cyclodextrin. It was administered intraperitoneally (i.p.) at doses of 3 and 10 mg/kg, in a dosing volume of 1 ml/kg, 1 h before tests. Progesterone (0.5 mg/0.1 ml) was dissolved in corn oil and administered subcutaneously (s.c.), 4 h before test, as a positive control.
# Ovariectomised adult female Sprague Dawley rats (180-200 g) were housed in groups of 5 in a reversed lighting system of 12 h light:dark (lights off 5.00-17.00 h). They were used for the experiments at least two weeks after ovariectomy. Forty eight hours before tests, the animals were primed with oestradiol benzoate (5 μg/[…] in corn oil, s.c.). On day 1, progesterone (0.5 mg/0.1 ml, in corn oil, s.c.) was administered to one of the groups 4 h before tests, as a positive control. Compound (1) (15 mg/kg, i.p.) was administered in 50% 2-hydroxypropyl-β-cyclodextrin, 1 h before tests. The test lasted 10 minutes and was carried out as described before. The difference in the percentage of time spent investigating the male minus the female stimuli was calculated, out of the total time spent investigating stimuli animals. Animals were submitted to a test on day 1 and on day 15. From day 2 to 14 the Compound (1) group received a daily injection of the compound (15 mg/kg, i.p.), while both the vehicle and the progesterone groups received an injection of vehicle. On day 15 the test took place again, as described for day 1.
# Ovariectomised female rats (Sprague Dawley, obtained from Charles River, UK) were stereotaxically implanted (coordinates 0.89 mm behind Bregma, 1.3 mm lateral and 2.5 mm vertical) with stainless steel cannulae (6 mm long, O.D. 0.75 mm), held in place with dental cement. Animals were housed in groups of three and returned to a reversed lighting system of 12 h light:dark (lights off 5.00-17.00 h). Correct placement of the cannulae was assessed post-mortem. Rats were used for tests two weeks after ovariectomy (one week after cannulation). The experiments started at least 5 h into the dark period. […]
# [2] = Plasma sexual hormone levels in ovariectomised female rats (radioimmunoassay); assay type: in vivo, rat; settings: Compound (1) 3-10 mg/kg i.p. 1 h, progesterone 0.5 mg s.c. 4 h before blood collection
# Procedure: Ovariectomised adult female Sprague Dawley rats (180-200 g) were housed in groups of 6 in a reversed lighting system of 12 h light:dark (lights off 7.00-19.00 h). They were used for the experiments at least two weeks after ovariectomy. Forty eight hours before tests, the animals were primed with oestradiol benzoate (5 μg/0.1 ml in corn oil, s.c.). Progesterone (0.5 mg/0.1 ml, in corn oil, s.c.) was administered 4 h before blood collection, as a positive control. Compound (1) (3-10 mg/kg, i.p.) was administered in 50% 2-hydroxypropyl-β-cyclodextrin, 1 h prior to blood collection. Blood was collected from the trunk, after decapitation. It was immediately centrifuged (3500 r.p.m., 4° C., 5 min) and the plasmas frozen until assayed for hormonal content, using commercially available radioimmunoassay kits (^125I-labelled hormones) for oestradiol, progesterone, LH, FSH and prolactin.
# [3] = system: female rat sexual proceptivity (NMB-inhibited); assay: Inhibition of female rat proceptivity by i.c.v. NMB and its antagonism; assay type: in vivo; settings: progesterone 0.5 mg s.c. 4 h; NMB 100 ng i.c.v. 10 min before test in progesterone-treated rats; Compound (1) 15 mg/kg i.p. 1 h before NMB (FIG. 5)
# Procedure: Ovariectomised female rats (Sprague Dawley, obtained from Charles River, UK) were stereotaxically implanted (coordinates 0.89 mm behind Bregma, 1.3 mm lateral and 2.5 mm vertical) with stainless steel cannulae (6 mm long, O.D. 0.75 mm), held in place with dental cement. Animals were housed in groups of three and returned to a reversed lighting system of 12 h light:dark (lights off 5.00-17.00 h). Correct placement of the cannulae was assessed post-mortem. Rats were used for tests two weeks after ovariectomy (one week after cannulation). The experiments started at least 5 h into the dark period. Forty eight hours before tests, the animals were primed with 5 μg oestradiol benzoate (OB) (s.c, in corn oil) and adapted to the apparatus (in the absence of stimuli animals) for 10 min on 2 consecutive days prior testing. The 10 min test was carried out as previously described. The difference in the percentage of time spent investigating male minus female was calculated, out of the total time spent investigating stimuli.
# Progesterone (Prog, 0.5 mg/0.1 ml) was dissolved in corn oil and administered subcutaneously (s.c.), 4 h before test, to induce proceptive behaviour. Compound (1) (15 mg/kg, i.p.) was dissolved in 50% 2-hydroxypropyl-β-cyclodextrin in saline and administered 1 h before the i.c.v. administration. Neuromedin B was obtained from Bachem, UK. It was dissolved in isotonic saline and administered i.c.v. over a 30 sec period, with the aid of a pump set to deliver a flow of 10 μl/min, 10 min before tests. The dosing volume was 5 μl/rat. Each rat received a total amount of 100 ng.
# [4] = system: female rat sexual receptivity; assay: Female rat sexual receptivity test (lordosis quotient); assay type: in vivo; settings: for lordosis quotient (LQ) vs LQ before administration: Compound (2) 10-100 mg/kg oral in PEG200, 1 h, quinelorane 6.25 μg/kg s.c., 90 min (FIG. 21)
# Procedure: as §1
# Compound (1) was dissolved in 100% β-cyclodextrin and then diluted with saline to a final solution of 50% 2-hydroxypropyl-β-cyclodextrin. It was administered intraperitoneally (i.p.) at a dose of 10 mg/kg, in a dosing volume of 1 ml/kg. Quinelorane (6.25 μg/kg) was dissolved in water and administered s.c. as positive control. Forty eight hours before testing, ovariectomised female rats (as described above), were primed with 5 μg oestradiol benzoate dissolved in corn oil and injected subcutaneously. […] The females were placed with a series of vigorous male rats and subjected to 10 mounts.
# The lordotic response of the animal was recorded and expressed as a percentage of the mounts (i.e. lordosis quotient, LQ), as previously described. Animals showing LQ<20 were considered non-receptive and were included in the study. Each rat was tested prior to administration of the compound and then tested similarly post-injection. The pre-treatment times were 1 h for Compound (1) and vehicle (50% β-cyclodextrin, i.p.) or 90 min for quinelorane.
# The above compound was dissolved in PEG200 vehicle and administered orally. Quinelorane dihydrochloride (LY 163,502, 6.25 μg/kg) was dissolved in water and administered subcutaneously (s.c.), as a positive control. Both compounds were administered in a 1 ml/kg volume.
# Forty eight hours before tests, the animals were primed with 5 μg oestradiol benzoate (Sigma Chemical. Co. Ltd., UK) dissolved in corn oil and injected subcutaneously. The females were placed with a series of vigorous male rats and subjected to 10 mounts. The lordotic response of the animal was recorded and expressed as a percentage of the mounts (i.e. lordosis quotient, LQ). […] Animals showing higher LQ were not included in the study. […]
# human NMB receptor (BB1) = target: T1, human NMB receptor (BB1) (Homo sapiens, UniProt P28336); assay: BB1 binding assay ([125I][Tyr4]bombesin displacement, CHO-K1 membranes); settings: Table 1, human NMB receptor binding affinity; Ki from IC50 by Cheng-Prusoff; read-out: NMB Ki
# T1 construct: expressed in transfected cells; membranes prepared from the cells
# T1 sequence (P28336 whole entry): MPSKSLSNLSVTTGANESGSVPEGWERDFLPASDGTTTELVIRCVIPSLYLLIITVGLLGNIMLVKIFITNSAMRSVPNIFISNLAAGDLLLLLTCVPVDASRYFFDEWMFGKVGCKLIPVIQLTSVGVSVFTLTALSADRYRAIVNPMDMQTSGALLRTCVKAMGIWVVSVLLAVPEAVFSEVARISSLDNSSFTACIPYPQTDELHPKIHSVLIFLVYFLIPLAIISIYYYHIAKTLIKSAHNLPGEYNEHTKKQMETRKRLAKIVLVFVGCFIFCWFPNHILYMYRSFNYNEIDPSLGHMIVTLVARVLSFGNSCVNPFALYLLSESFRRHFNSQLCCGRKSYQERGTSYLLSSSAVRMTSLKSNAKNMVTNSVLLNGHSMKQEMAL
# Procedure, shortened: (§2)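 Competition against <0.1 nM [125I][Tyr4]bombesin, 60 min for the NMB receptor and 90 min for the GRP receptor, using homogenised membranes of human-receptor-expressing CHO-K1 cells in pH 7.4 Tris buffer. Bound label was filtered and gamma-counted, with 1 μM bombesin as nonspecific. Ki values came from IC50 via Cheng-Prusoff.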
# human GRP receptor (BB2) = target: T2, human GRP receptor (BB2) (Homo sapiens, UniProt P30550); assay: BB2 binding assay ([125I][Tyr4]bombesin displacement, CHO-K1 membranes); settings: Table 1, human GRP receptor binding affinity; Ki from IC50 by Cheng-Prusoff; read-out: GRP Kj
# T2 construct: expressed in transfected cells; membranes prepared from the cells
# T2 sequence (P30550 whole entry): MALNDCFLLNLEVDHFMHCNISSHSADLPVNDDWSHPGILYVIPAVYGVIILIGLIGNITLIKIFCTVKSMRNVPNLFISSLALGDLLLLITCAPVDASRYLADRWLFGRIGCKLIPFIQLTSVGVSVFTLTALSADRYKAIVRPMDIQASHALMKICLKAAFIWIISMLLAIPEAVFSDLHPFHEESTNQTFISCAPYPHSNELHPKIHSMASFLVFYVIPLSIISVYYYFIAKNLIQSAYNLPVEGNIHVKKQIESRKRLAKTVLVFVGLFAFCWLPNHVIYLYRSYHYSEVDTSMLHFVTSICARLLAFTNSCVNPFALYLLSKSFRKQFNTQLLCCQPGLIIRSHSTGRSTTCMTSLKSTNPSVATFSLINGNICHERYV
# Procedure, shortened: as §2
compound,measurement,setting,value
"CC(=O)[C@H]1CC[C@H]2[C@@H]3CCC4=CC(=O)CC[C@]4(C)[C@H]3CC[C@]12C [progesterone, reference compound]",proceptivity on day 1 vs vehicle,"[1]; Compound (1) 15 mg/kg i.p. 1 h before test, progesterone 0.5 mg s.c. 4 h before test (FIG. 3)",stimulatory effect on proceptivity
same,plasma levels of progesterone,[2]; vs vehicle (FIG. 6),significant increase in the progesterone plasma levels
same,plasma levels of LH,[2]; vs vehicle (FIG. 9),significant decrease in LH plasma levels
same,proceptivity (percentage of time investigating male minus female stimulus),[3],increased the percentage of time spent investigating the male stimulus
"COc1ccc(C2(CNC(=O)[C@](C)(Cc3c[nH]c4ccccc34)Nc3nc(-c4ccc([N+](=O)[O-])cc4)co3)CCCCC2)nc1 [Example 9, (S)-3-(1H-Indol-3-yl)-N-[1-(5-methoxy-pyridin-2-yl)-cyclohexylmethyl]-2-methyl-2-[4-(4-nitro-phenyl)-oxazol-2-ylamino]-propionamide]",percentage of time spent investigating the male stimulus,"[1]; oral, 30-100 mg/kg in PEG 200, 1 h before test (FIG. 19)",dose-dependently (30-100) increased the percentage of time spent investigating the male stimulus
same,percentage of time spent investigating the male stimulus,"[1]; p.o., 3-30 mg/kg in 0.5% methyl cellulose, 1 h before test (FIG. 20)",dose-dependently (3-30 mg/kg) increased the percentage of time spent investigating the male stimulus
same,lordosis quotient (LQ) vs LQ before administration,[4],dose-dependently (10-100 mg/kg) increased the LQ
same,MED for increase of lordosis quotient (LQ),"[4]; single oral administration, 10-100 mg/kg in PEG200, 1 h after administration",100 mg/kg
same,melting point,,100 to 105 °C
same,Ki,human NMB receptor (BB1),0.004 µM
same,Ki,human GRP receptor (BB2),0.024 µM
neuromedin B [NMB],proceptivity (percentage of time investigating male minus female stimulus),[3],significantly reduced proceptivity
"CCCN1CCC[C@@H]2Cc3nc(N)ncc3C[C@H]21 [quinelorane, reference compound]",lordosis quotient (LQ) vs LQ before administration,[4],significantly (P<0.01) increased the LQ
